Laboratory results published in patent US8207206B2, “(S,R)-3-phenyl-4,5 dihydro-5-isoxazole acetic acid-nitric oxide and use thereof as anti-cancer and antiviral agent” (OncoNOx APS, priority 2007, dated 2012).

How the values were obtained:
C6 cells = experiment: Nitrite accumulation (Griess reaction); format: cell-based, rat; settings: 24 h
Description: Nitrite accumulation was measured by Griess reaction as previously described (Mijatovic et al CMLS 2004).

B16 cells [1] = experiment: LDH release assay (cell death); format: cell-based, mouse; settings: B16, dose-dependent (24 h) and time-dependent (25 μg/ml), significant after 18 h
Description: As a marker of necrotic cell death, the release of intracellular enzyme LDH, which mediates the conversion 2,4-dinitrophenylhydrazine into visible hydrazone precipitate in the presence of pyruvate, was measured. […] The percentage of dead cells was determined using the following formula: [(E−C)/(T−C)]×100, wherein E is the experimental absorbance of treated cultures measured at 492 nm, C is the absorbance of supernatants of control untreated cells, and T is the absorbance corresponding to the maximal (100%) LDH release of Triton-lysed cells. Cell cycle analysis and apoptosis detection were carried out exactly as described in the literature (Mijatovic CMLS 2005). Acidic vesicular organelles, which characterise autophagy, are stained by vital dye acridin orange. The intensity of red fluorescence is proportional to the acidity and volume of the organelles, while the cytoplasm and nucleolus emits bright green and dim red (Kanzawa 2004). For the detection of autophagy the cells were cultivated in 6-well plates as previously described, detached and stained with 1 μg/ml acridin orange for 15 min at RT. At the end of the incubation period the cells were washed and finally resuspended in PBS. Green (510-530 nm) and red (>650 nm) fluorescence emission from 10^4 cells illuminated with blue (488 nm) excitation light was measured with a FACS Calibur and analyzed using CellQuest software.

L929 cells [2] = experiment: LDH release assay (cell death); format: cell-based, mouse; settings: L929, dose-dependent (24 h) and time-dependent (25 μg/ml), significant after 18 h
Description: (§1) As a marker of necrotic cell death, the release of intracellular enzyme LDH, which mediates the conversion 2,4-dinitrophenylhydrazine into visible hydrazone precipitate in the presence of pyruvate, was measured. The cells were seeded in flat-bottom 96-well plates as indicated above and the assay was performed after 24 h incubation, as previously described (Decker et al). The percentage of dead cells was determined using the following formula: [(E−C)/(T−C)]×100, wherein E is the experimental absorbance of treated cultures measured at 492 nm, C is the absorbance of supernatants of control untreated cells, and T is the absorbance corresponding to the maximal (100%) LDH release of Triton-lysed cells. Cell cycle analysis and apoptosis detection were carried out exactly as described in the literature (Mijatovic CMLS 2005). Acidic vesicular organelles, which characterise autophagy, are stained by vital dye acridin orange. The intensity of red fluorescence is proportional to the acidity and volume of the organelles, while the cytoplasm and nucleolus emits bright green and dim red (Kanzawa 2004). […] Green (510-530 nm) and red (>650 nm) fluorescence emission from 10^4 cells illuminated with blue (488 nm) excitation light was measured with a FACS Calibur and analyzed using CellQuest software.

B16 cells [3] = experiment: Cell cycle analysis and apoptosis detection (PI staining, flow cytometry); format: cell-based, mouse; settings: B16, 25 μg/ml, 24 h
Description: as §1

L929 cells [4] = experiment: as above; format: cell-based, mouse; settings: L929, 25 μg/ml, 24 h
Description: as §1

B16 cells [5] = experiment: ROS measurement by DHR fluorescence (flow cytometry); format: cell-based, mouse; settings: B16, 25 μg/ml, 24 h
Description: (§2) The cells grown in the 6-well plate were stained with 1 μM dihydrorhodamine 123 (DHR) 20 min before the treatment with the test compound. At the end of the cultivation period the cells were detached, washed and resuspended in PBS. Analysis of ROS release was performed with a FACSCalibur and analyzed using CellQuest Pro software (Kaludjerovic 2005).

L929 cells [6] = experiment: as above; format: cell-based, mouse; settings: L929, 25 μg/ml, 24 h
Description: as §2

[7] = tested on: MAP kinases (p38 MAPK, ERK, JNK) in B16 cells; experiment: Cell-based ELISA for activation of MAP kinases; design: species or system mouse; settings: B16, 25 μg/ml, time course
Description: (§3) Activation of MAP kinases (p38 MAPK, extracellular signal-regulated kinase—ERK, and Jun-N-terminal kinase—JNK) or nuclear factor-κB (NF-κB) was determined by means of a slightly modified method of cell-based ELISA by Versteeg et al. (Versteeg 2000). Since MAP kinases are activated by phosphorylation, and phosphorylation of the inhibitory subunit IκB is a necessary step for NF-κB activation, we used antibodies specific for phosphorylated forms of MAP kinases (p-p38, p-ERK and p-JNK) and IκB (p-IκB). The cells were grown overnight in 96-well flat-bottom plates in a culture medium containing 0.5% FCS and then treated with the test compound diluted in conventional culture medium. At the end of treatment period the cells were fixed in 4% parformaldehyde, endogenous peroxydase was quenched with 1% H2O2 in PBS containing 0.1% Triton X-100 (PBST), and unspecific binding of antibodies was blocked with a PBST solution containing 10% FCS. Primary mouse monoclonal antibodies specific for rat/mouse p-ERK, p-p38, p-JNK, p-IκB (1:200; all from Santa Cruz Biotechnology, Santa Cruz, Calif.) were applied in PBST supplemented with 2% bovine serum albumine (PBSTB), followed by secondary peroxidase-conjugated goat anti-mouse IgG (1:2500 in PBSTB; USB corporation, Cleveland, Ohio) for anti-p-ERK, anti-p-JNK and anti-p-IκB, or anti-mouse IgM (1:4000; USB corporation) for detection of anti-p-p38. Incubation with antibodies was carried out at 37° C. for 1 h. After 15 min incubation with peroxydase substrate TMB and subsequent addition of 0.1 M HCl, the absorbance at 450 nm was measured in an automated microplate reader. To enable comparison between treatment and control, the resulting absorbances were corrected for the cell number determined by crystal violet staining, as described in the original protocol. The results are presented as relative expression in comparison with the control value, which was arbitrarily set to 1.

[8] = tested on: MAP kinases (p38 MAPK, ERK, JNK) in L929 cells; experiment: Cell-based ELISA for activation of MAP kinases; design: species or system mouse; settings: L929, 25 μg/ml, time course
Description: as §3

For `N#Cc1c(COC(=O)CC2CC(c3ccccc3)=NO2)no[n+]1[O-]` (racemic) [GIT27-NO, (S,R)-3-phenyl-4,5 dihydro-5-isoxazole acetic acid-nitric oxide], the “accumulation of nitrites (NO release) in culture media alone” value (C6 cells; in the absence of cells) was “failed to release NO and to form nitrites”, the “accumulation of nitrites in cell culture supernatants” value (C6 cells; in the presence of C6 cells) was “significant amount of nitrites” and the LDH release (B16 cells [1]) was “induced LDH release”. The LDH release (L929 cells [2]) was “induced LDH release”, the “percentage of cells in subG compartment (hypodiploid cells)” value (B16 cells [3]) was under 10% and the “proportion of hypodiploid cells (subG compartment)” value (L929 cells [4]) was “significantly increased proportion of hypodiploid cells”. The “intracellular production of ROS (DHR fluorescence)” value (B16 cells [5]) was “markedly increased”, the “intracellular production of ROS (DHR fluorescence)” value (L929 cells [6]) was “markedly increased” and the “activation of ERK1/2” value [7] was “did not affect the activation”. For the same molecule, the “activation of JNK” value [7] was “significant time-dependent activation”, the “activation of p38” value [7] was “only slight activation” and the “activation of ERK1/2” value [8] was “marked and sustained activation”. For the same molecule, the “activation of p38” value [8] was “significant transient activation” and the “expression (activation) of JNK” value [8] was “without affecting the expression”.
